Data as given in patent publication US20220402948A1, “EGFR INHIBITOR, COMPOSITION AND PREPARATION METHOD THEREFOR” (BETTA PHARMACEUTICALS CO., LTD., priority 2019, published 2022).

Key:
Type in all cases: biochemical
[1] = target: IGF1R (Homo sapiens, UniProt P08069); experiment: IGF1R kinase test (mobility variation analysis, Caliper EZ Reader); conditions: kinase enzymatic activity, Table 1; read-out: EGFR IGF1R IC50
Protocol: (§1) Mobility variation analysis was performed to determine the affinity of the compound for EGFRΔ19del/T790M/C797S, EGFR WT and IGF1R. The enzymatic reaction scheme is as follows:
(§2) 1. Prepare 1*kinase buffer as follows.
2. Preparation of compound concentration gradient: The test compound was tested with an initial concentration of 3000 nM (300 nM for some triple mutations and 100 nM for others), diluted in a 384 source plate (96-well plate for comparative compound 1 and compounds 1-38) to a 100% DMSO solution with 100-fold final concentration, and the compound is 3-fold diluted with Precision to 10 concentrations. A dispenser Echo 550 was used to transfer 250 nL 100-fold final concentration of the compound to the target plate OptiPlate-384F.
3. Prepare 2.5-fold final concentration (5-fold for comparative compound 1 and compounds 1-38) of kinase solution with 1×Kinase buffer. Following steps should also be carried out for comparative compound 1 and compounds 1-38: Add each prepared intermediate dilution compounds to the compound wells of 384-well plate respectively, and test the repeated wells of each concentration; add 5% DMSO of 5 plates into the negative control well and the positive control well respectively. Prepare 2.5-fold final concentration of kinase solution with 1×Kinase buffer.
(§3) 4. Add 10 μL of 2.5-fold final concentration of kinase solution to the compound well and the positive control well; add 10 μL of 1×Kinase buffer to the negative control well.
(§4) 5. Centrifuge at 1000 rpm for 30 s, shake the reaction plate for well mixing, and then incubate at room temperature for 10 minutes.
(§5) 6. Prepare a mixture of ATP and Kinase substrate at 5/3-fold final concentration with 1×Kinase buffer.
7. Add 15 μL mixture of 5/3-fold (2.5-fold for comparative compound 1 and compounds 1-38) final concentration of ATP and substrate to start reaction.
(§6) 8. Centrifuge the 384-well plate at 1000 rpm for 30 s, shake it well and then incubate it at room temperature for corresponding time.
(§7) 9. Add 30 μL of stop detection solution to stop the kinase reaction, centrifuge at 1000 rpm for 30 s, and shake it well.
(§8) 10. Read conversion rate with Caliper EZ Reader.
(§9) % Inhibition=((Conversion%_max−Conversion%_sample)/(Conversion%_max−Conversion%_min))*100
(§10) Wherein: Conversion%_sample is the sample conversion rate reading; Conversion%_min: Mean value of negative control wells, representing the conversion rate reading of wells without enzymatic activity; Conversion%_max: Mean value of positive control wells, representing the conversion rate reading of wells without compound inhibition.
(§11) The dose-effect curve was fitted with concentration log value as X-axis and percentage inhibition rate as Y-axis. GraphPad Prism 5 analysis software was used for fitting Log (inhibitor) vs. response—Variable slope with the dose-effect curve to obtain IC50 value of enzymatic activity for each compound.
(§12) The calculation formula is as Y-Bottom+(Top-Bottom)/(1+10^((Log IC50−X)*HillSlope)).

[2] = target: EGFRΔ19del/T790M/C797S (Homo sapiens, UniProt P00533, T790M/C797S, form not given); experiment: EGFR Δ19del/T790M/C797S kinase test (mobility variation analysis, Caliper EZ Reader); conditions: kinase enzymatic activity, Table 1
Protocol: as §1, §2
(§13) 3. […] Prepare 2.5-fold final concentration of kinase solution with 1×Kinase buffer.
as §3, §4, §5, §6, §7, §8, §9, §10, §11, §12

[3] = target: EGFR WT (Homo sapiens, UniProt P00533); experiment: EGFR WT kinase test (mobility variation analysis, Caliper EZ Reader); conditions: kinase enzymatic activity, Table 1
Protocol: as §1, §2, §13, §3, §4, §5, §6, §7, §8, §9, §10, §11, §12

Sequence of IGF1R (P08069 31-1367, species assumed): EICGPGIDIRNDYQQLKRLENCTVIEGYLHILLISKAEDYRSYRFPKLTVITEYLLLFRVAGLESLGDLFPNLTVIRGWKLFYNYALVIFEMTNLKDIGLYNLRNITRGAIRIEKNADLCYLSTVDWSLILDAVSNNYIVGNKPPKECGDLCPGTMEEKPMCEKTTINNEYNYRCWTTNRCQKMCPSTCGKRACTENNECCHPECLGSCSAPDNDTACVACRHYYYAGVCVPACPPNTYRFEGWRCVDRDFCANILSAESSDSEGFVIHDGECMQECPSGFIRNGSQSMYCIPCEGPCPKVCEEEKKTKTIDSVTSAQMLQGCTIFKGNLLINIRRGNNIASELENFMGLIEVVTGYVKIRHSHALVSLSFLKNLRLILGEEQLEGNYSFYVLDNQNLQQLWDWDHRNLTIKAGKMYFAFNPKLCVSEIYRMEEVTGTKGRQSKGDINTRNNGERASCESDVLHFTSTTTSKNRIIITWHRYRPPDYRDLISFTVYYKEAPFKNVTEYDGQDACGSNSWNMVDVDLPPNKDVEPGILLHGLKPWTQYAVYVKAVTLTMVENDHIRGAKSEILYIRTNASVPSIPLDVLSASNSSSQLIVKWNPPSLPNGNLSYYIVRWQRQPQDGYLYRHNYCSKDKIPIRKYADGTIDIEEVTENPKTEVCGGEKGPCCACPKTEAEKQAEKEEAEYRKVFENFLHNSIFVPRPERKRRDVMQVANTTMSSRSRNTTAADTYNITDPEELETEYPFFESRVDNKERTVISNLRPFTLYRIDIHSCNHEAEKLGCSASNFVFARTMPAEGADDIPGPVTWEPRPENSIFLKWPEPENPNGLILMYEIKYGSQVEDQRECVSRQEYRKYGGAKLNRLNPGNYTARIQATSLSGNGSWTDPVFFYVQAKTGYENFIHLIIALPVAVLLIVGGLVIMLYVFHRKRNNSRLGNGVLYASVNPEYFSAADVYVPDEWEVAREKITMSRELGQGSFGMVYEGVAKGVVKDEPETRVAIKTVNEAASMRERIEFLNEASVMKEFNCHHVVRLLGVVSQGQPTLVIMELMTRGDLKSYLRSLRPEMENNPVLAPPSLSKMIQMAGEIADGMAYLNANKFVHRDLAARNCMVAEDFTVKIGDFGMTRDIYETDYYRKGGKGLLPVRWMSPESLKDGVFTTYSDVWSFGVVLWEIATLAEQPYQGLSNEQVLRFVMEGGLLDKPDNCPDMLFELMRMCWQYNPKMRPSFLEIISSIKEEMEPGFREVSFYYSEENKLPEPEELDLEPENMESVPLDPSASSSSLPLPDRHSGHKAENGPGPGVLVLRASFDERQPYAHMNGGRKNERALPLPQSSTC

Molecule	IC50 [1]	IC50 [2]	IC50 [3]
CCOc1noc(C)c1-c1ccc(Nc2nc(Nc3cc(CC)c(N4CCC(N5CCN(C)CC5)CC4)cc3OC)ncc2Cl)c(P(C)(C)=O)c1 [Compound 58, (2-((5-Chloro-2-((5-ethyl-2-methoxy-4-(4-(4-methylpiperazin-1-yl)piperidin-1-yl)phenyl)amino)pyrimidin-4-yl)amino)-5-(3-ethoxy-5-methylisoxazol-4-yl)phenyl)dimethylphosphine oxide]	274 nM	3.7 nM	65 nM
CCc1cc(Nc2ncc(Cl)c(Nc3ccc(-c4cnn5c4CC(C)(C)C5)cc3P(C)(C)=O)n2)c(OC)cc1N1CCC(N2CCN(C)CC2)CC1 [Compound 41, (2-((5-Chloro-2-((5-ethyl-2-methoxy-4-(4-(4-methylpiperazin-1-yl)piperidin-1-yl)phenyl)amino)pyrimidin-4-yl)amino)-5-(5,5-dimethyl-5,6-dihydro-tetrahydro-pyrrolo[1,2-b]pyrazol-3-)phenyl)dimethylphosphine oxide]	748 nM	1.5 nM	58.9 nM
CCc1cc(Nc2ncc(Cl)c(Nc3ccc(-c4cnccc4OC)cc3P(C)(C)=O)n2)c(OC)cc1N1CCC(N2CCN(C)CC2)CC1 [Compound 53, (2-((5-Chloro-2-((5-ethyl-2-methoxy-4-(4-(4-methylpiperazin-1-yl)piperidin-1-yl)phenyl)amino)pyrimidin-4-yl)amino)-5-(4-methoxypyridin-3-yl)phenyl)dimethylphosphine oxide]	1100 nM	0.6 nM	64 nM
CCc1cc(Nc2ncc(Cl)c(Nc3ccc(-c4ccnc5c4ccn5C)cc3P(C)(C)=O)n2)c(OC)cc1N1CCC(N2CCN(C)CC2)CC1 [Compound 56, (2-((5-Chloro-2-((5-ethyl-2-methoxy-4-(4-(4-methylpiperazin-1-yl)piperidin-1-yl)phenyl)amino)pyrimidin-4-yl)amino)-5-(1-methyl-1H-pyrrolo[2,3-b]pyridin-4-yl)phenyl)dimethylphosphine oxide]	886 nM	2.4 nM	72.5 nM
CCc1cc(Nc2ncc(Br)c(Nc3ccc(-c4ccn[nH]4)cc3P(C)(C)=O)n2)c(OC)cc1N1CCC(N2CCN(C)CC2)CC1 [Compound 39, (2-((5-Bromo-2-((5-ethyl-2-methoxy-4-(4-(4-methylpiperazin-1-yl)piperidin-1-yl)phenyl)amino)pyrimidin-4-yl)amino)-5-(1H-pyrazol-5-yl)phenyl)dimethylphosphine oxide]	138 nM	0.4 nM	18.3 nM
CCc1cc(Nc2ncc(Br)c(Nc3ccc(-c4cn(C)c5cccnc45)cc3P(C)(C)=O)n2)c(OC)cc1N1CCC(N2CCN(C)CC2)CC1 [Compound 42]	1170 nM	1.24 nM	86.2 nM
CCc1cc(Nc2ncc(Cl)c(Nc3ccc(-c4cn[nH]c4)cc3P(C)(C)=O)n2)c(OC)cc1N1CCC(N2CCN(C)CC2)CC1 [Compound 48, (2-((5-Chloro-2-((5-ethyl-2-methoxy-4-(4-(4-methylpiperazin-1-yl)piperidin-1-yl)phenyl)amino)pyrimidin-4-yl)amino)-5-(1H-pyrazol-4-yl)phenyl)dimethylphosphine oxide]	112 nM	0.3 nM	–
CCc1cc(Nc2ncc(Br)c(Nc3ccc(-c4ncsc4C)cc3P(C)(C)=O)n2)c(OC)cc1N1CCC(N2CCN(C)CC2)CC1 [Compound 60]	418 nM	0.6 nM	47 nM
CCc1cc(Nc2ncc(Br)c(Nc3ccc(-c4cccc5cc[nH]c45)cc3P(C)(C)=O)n2)c(OC)cc1N1CCC(N2CCN(C)CC2)CC1 [Compound 52]	1910 nM	1.9 nM	203 nM
CCc1cc(Nc2ncc(Br)c(Nc3ccc(-c4cn(C)cn4)cc3P(C)(C)=O)n2)c(OC)cc1N1CCC(N2CCN(C)CC2)CC1 [Compound 68, (2-((5-Bromo-2-((5-ethyl-2-methoxy-4-(4-(4-methylpiperazin-1-yl)piperidin-1-yl)phenyl)amino)pyrimidin-4-yl)amino)-5-(1-methyl-1H-imidazol-4-yl)phenyl)dimethylphosphine oxide]	663 nM	0.9 nM	84.7 nM
CCc1cc(Nc2ncc(Br)c(Nc3ccc(-c4cc5cc(C#N)ccc5[nH]4)cc3P(C)(C)=O)n2)c(OC)cc1N1CCC(N2CCN(C)CC2)CC1 [Compound 43]	748 nM	2.5 nM	82.5 nM
CCc1cc(Nc2ncc(Br)c(Nc3ccc(-c4ncnn4C)cc3P(C)(C)=O)n2)c(OC)cc1N1CCC(N2CCN(C)CC2)CC1 [Compound 62, (2-((5-Bromo-2-((5-ethyl-2-methoxy-4-(4-(4-methylpiperazin-1-yl)piperidin-1-yl)phenyl)amino]pyrimidin-4-yl)amino)-5-(1-methyl-1H-1,2,4-triazol-5-yl)phenyl)dimethylphosphine oxide]	992 nM	0.8 nM	216 nM
CCc1cc(Nc2ncc(Br)c(Nc3ccc(-c4nccn4C4CC4)cc3P(C)(C)=O)n2)c(OC)cc1N1CCC(N2CCN(C)CC2)CC1 [Compound 69]	1940 nM	4 nM	316 nM

Now from value to molecule:

IC50 [1]	IC50 [2]	IC50 [3]	Molecule
–	0.3 nM	–	CCn1cc(-c2cc(Nc3ncc(Br)c(Nc4ccc(-c5nn(C)c6ncccc56)cc4P(C)(C)=O)n3)c(OC)cc2N2CCC(N3CCN(C)CC3)CC2)cn1 [Compound K-102, (2-((5-Bromo-2-((5-(1-ethyl-1H-pyrazol-4-yl)-2-methoxy-4-(4-(4-methylpiperazin-1-yl)piperidin-1-yl)phenyl)amino)pyrimidin-4-yl)amino)-5-(1-methyl-1H-pyrazolo[3,4-b]pyridin-3-yl)phenyl)dimethylphosphine oxide]
427 nM	0.8 nM	83.6 nM	CCc1cc(Nc2ncc(Cl)c(Nc3ccc(-c4ccc[nH]c4=O)cc3P(C)(C)=O)n2)c(OC)cc1N1CCC(N2CCN(C)CC2)CC1 [Compound K-092, 3-(4-((5-Chloro-2-((5-ethyl-2-methoxy-4-(4-(4-methylpiperazin-1-yl)piperidin-1-yl)phenyl)amino)pyrimidin-4-yl)amino)-3-(dimethylphosphoryl)phenyl)pyridin-2(1H)-one]
886 nM	1.6 nM	44 nM	(2-((5-Chloro-2-((5-ethyl-2-methoxy-4-(4-(4-methylpiperazin-1-yl)piperidin-1-yl)phenyl)amino)pyrimidin-4-yl)amino)-5-(3-ethoxy-5-methylisoxazol-4-yl)phenyl)dimethylphosphine oxide [Compound K-061]
886 nM	1.6 nM	44 nM	CCc1cc(Nc2ncc(Cl)c(Nc3ccc(-c4cccc5ocnc45)cc3P(C)(C)=O)n2)c(OC)cc1N1CCC(N2CCN(C)CC2)CC1 [Compound K-052, (5-(Benzo[d]oxazol-4-yl)-2-((5-chloro-2-((5-ethyl-2-methoxy-4-(4-(4-methylpiperazin-1-yl)piperidin-1-yl)phenyl)amino)pyrimidin-4-yl)amino)phenyl)dimethylphosphine oxide]
56 nM	0.5 nM	17 nM	CCc1cc(Nc2ncc(Br)c(Nc3ccc(-c4cnn(C(F)F)n4)cc3P(C)(C)=O)n2)c(OC)cc1N1CCC(N2CCN(C)CC2)CC1 [Compound K-106, (2-((5-Bromo-2-((5-ethyl-2-methoxy-4-(4-(4-methylpiperazin-1-yl)piperidin-1-yl)phenyl)amino)pyrimidin-4-yl)amino)-5-(2-(difluoromethyl)-2H-1,2,3-triazol-4-yl)phenyl)dimethylphosphine oxide]
279 nM	0.8 nM	38.8 nM	CCn1cc(-c2cc(Nc3ncc(Br)c(Nc4ccc(-c5cccc6cc[nH]c56)cc4P(C)(C)=O)n3)c(OC)cc2N2CCC(N3CCN(C)CC3)CC2)cn1 [Compound K-091, (2-((5-Bromo-2-((5-(1-ethyl-1H-pyrazol-4-yl)-2-methoxy-4-(4-(4-methylpiperazin-1-yl)piperidin-1-yl)phenyl)amino)pyrimidin-4-yl)amino)-5-(1H-indol-7-yl)phenyl)dimethylphosphine oxide]
